# Experimental data from PubChem BioAssay AID1996.
# Details: buffer; pH 7.4; 200.0 µM
row,SMILES,solubility kinetic
1,CC1CCN(c2nc3c(cc2C#N)COC(C)(C)C3)CC1,16 µg/mL
2,Cc1cccc(NC(=S)N(CCc2ccncc2)C(C)C)c1C,32.5 µg/mL
3,COc1ccc(CCNCc2cccn2C)cc1OC.Cl,> 46.6 µg/mL
4,Cc1cc(Cl)n2c(nc3ccccc32)c1C#N,15.3 µg/mL
5,CN1C(=O)c2ccc(NC(=O)c3cccc4ccccc34)cc2C1=O,0.8 µg/mL
6,Cc1cc(NC(=O)c2ccc(C)c(C)c2)no1,3.6 µg/mL
7,Cc1ccc(Sc2ccc(C(=O)N(C)C)cc2[N+](=O)[O-])cc1,35 µg/mL
8,O=C(NCC1CCCO1)c1ccccc1NS(=O)(=O)c1cccc([N+](=O)[O-])c1 (centres undefined),> 60.8 µg/mL
9,O=CN1Cc2ccccc2-c2ccccc2C1,> 33.5 µg/mL
10,COc1ccc(C(=O)NCCONC(=O)c2ccc(OC)cc2)cc1,50.6 µg/mL
11,Cc1cc(S(=O)(=O)Nc2nc(CN3CCOCC3)nc3sc4c(c23)CCC4)ccc1F,67.4 µg/mL
12,Nc1cn(C2OC(CO)C(O)C2O)c(=O)[nH]c1=O (centres undefined),> 38.9 µg/mL
13,COc1ccccc1OCC(=O)Nc1cc(S(=O)(=O)N2CCOCC2)ccc1N1CCCCC1,3.1 µg/mL
14,CC1(NC(=O)Nc2ccccc2)CCS(=O)(=O)C1 (centres undefined),> 40.2 µg/mL
15,COc1ccc(CCN(C)Cc2cccc3ccccc23)cc1OC,37.1 µg/mL
16,NC(=O)C1CCN(C(=O)c2cccc3ccccc23)CC1,> 42.4 µg/mL
17,Cc1cccc(NC(=O)NCCN2CCCCC2)c1,> 39.2 µg/mL
18,CCOC(=O)CC(=O)CSc1nccc(-c2cccnc2)n1,> 47.6 µg/mL
19,O=C(NCc1ccccn1)Nc1cc(Cl)ccc1Cl,11.9 µg/mL
20,COc1cccc(CN2CCN(Cc3ccc(O)cc3)CC2CCO)c1 (centres undefined),49.2 µg/mL
21,CC(C[N+](C)(C)C)OC(N)=O.[Cl-] (centres undefined),> 29.5 µg/mL
22,Cc1cc(Br)ccc1NC(=S)NC1CCCC1,19.1 µg/mL
23,CCN(CC)c1nc2c(c(=O)n(C)c(=O)n2C)n1CCCc1ccccc1,50.7 µg/mL
24,O=C1Nc2ccccc2Nc2ccc([N+](=O)[O-])cc21,1.1 µg/mL

row,SMILES,solubility kinetic
1,Cc1ccccc1C(=O)NC(C)C1CC2CCC1C2 (centres undefined),28.5 µg/mL
2,Cc1ccc(CC(=O)NC2CCN(C)CC2)cc1,> 37 µg/mL
3,COc1ccc(CNC(=O)COC(=O)c2ccc(S(=O)(=O)NCc3ccco3)cc2)cc1,8 µg/mL
4,CCN(CC)c1ccc(NC(=O)c2ccccc2Br)cc1S(=O)(=O)Nc1ccccc1OC,0.6 µg/mL
5,COc1ccc(C2C(C#N)=C(C)NC(C)=C2C#N)c(OC)c1,4.6 µg/mL
6,CC1SC(C)C(=O)N(CC(=O)Nc2ccc([N+](=O)[O-])cc2)C1=O (centres undefined),45.7 µg/mL
7,CCOc1ccccc1Nc1nc(N)nc(CN2CCCCC2C)n1 (centres undefined),> 51.4 µg/mL
8,Cc1cc(NC(=O)c2c(-c3c(F)cccc3Cl)noc2C)no1,> 50.4 µg/mL
9,Cc1ccc(NC(=O)CCn2cnc3ccccc3c2=O)c(C)c1,13.7 µg/mL
10,CC1CCN(Cc2cc(=O)oc3ccc(C(C)C)cc23)CC1.Cl,4 µg/mL
11,CCOC(=O)c1c(NC(=O)c2ccccc2C(=O)O)sc2c1CCCC2,41.5 µg/mL
12,CCOC(=O)/C(O)=C(\C#N)c1nc2ccccc2[nH]1,> 38.6 µg/mL
13,Cc1nc(N2CCOCC2)c2c3c(sc2n1)CCC3,34.4 µg/mL
14,COc1ccc(Nc2ncnc3sccc23)cc1OC,36.9 µg/mL
15,Cc1c(Cl)cccc1NS(=O)(=O)c1cccc2nsnc12,> 51 µg/mL
16,CS(=O)(=O)c1ccc(Cl)c(C(=O)NCC2CCCCC2)c1,> 49.5 µg/mL
17,Cc1ccc(C(=O)CCC(=O)Nc2ccc(C)cn2)cc1,3.4 µg/mL
18,Cc1cc(OCC(=O)N(C)Cc2ccccc2)ccc1Br,22.7 µg/mL
19,Cc1ccc(S(=O)(=O)NCc2ccncc2)c(C)c1C,34.7 µg/mL
20,CC1(C)Cc2nc(-c3ccccc3)nc(SCC(O)CO)c2CO1 (centres undefined),51.7 µg/mL
21,O=C(Cc1ccccc1[N+](=O)[O-])NCc1ccco1,> 39 µg/mL
22,Nc1nc(Nc2ccc(Cl)cc2)nc(NCc2ccco2)c1[N+](=O)[O-],1 µg/mL
23,O=C(COC(=O)Cc1ccc(Cl)cc1)Nc1ccccc1F,20.8 µg/mL
24,COc1ccc(/C=C2\SC(=Nc3ccccc3OC)NC2=O)cc1,1.7 µg/mL

row,SMILES,solubility kinetic
1,N#Cc1ccsc1NC(=O)COC(=O)CCS(=O)(=O)c1ccccc1,> 56.8 µg/mL
2,Cc1c(C)n(C)c2ccc(C(=O)NCCc3ccco3)cc12,> 44.5 µg/mL
3,CCOc1ccc(NC(=O)[C@@H](NC(=O)c2ccco2)C(C)C)cc1,> 49.6 µg/mL
4,Cc1cc[n+](Cc2ccc([N+](=O)[O-])cc2)cc1.[Br-],> 46.4 µg/mL
5,COc1ccc(S(=O)(=O)N2CCN(c3ccccn3)CC2)c(OC)c1,52.1 µg/mL
6,O=C(O)Cn1cnc2c(oc3ccccc32)c1=O,> 36.6 µg/mL
7,Cc1ccc(CC2C(=O)N(c3ccccc3)C(=O)C2C)cc1 (centres undefined),7.6 µg/mL
8,NC(=O)c1ccc(NC(=O)CSC(=O)c2ccccc2)cc1,16.4 µg/mL
9,COC(=O)c1ccc(S(=O)(=O)N2CCCN(Cc3ccc(F)cc3)CC2)n1C,> 61.4 µg/mL
10,NC(=O)c1ccc(NC(=O)COc2cccc3ccccc23)cc1,1.1 µg/mL
11,COc1ccc(S(=O)(=O)Nc2cccnc2)c(Cl)c1Cl,21.5 µg/mL
12,CC(=O)c1ccc(NC(=O)COC(=O)C2C3CC4OC(=O)C2C4C3)cc1 (centres undefined),> 53.6 µg/mL
13,O=C(O)c1ccccc1C(=O)Nc1nc(-c2ccccc2)cs1,43.2 µg/mL
14,Cc1ccccc1NC(=O)c1ccc2c(c1)CCN2S(C)(=O)=O,6.3 µg/mL
15,Cc1nc(N=C(N)N)nc2c(C)cccc12,29.8 µg/mL
16,CC(C)(CNC(=O)c1cccs1)N1CCOCC1,> 40.3 µg/mL
17,CCC(=O)Nc1ccc2c(c1)ncn2C,> 30.5 µg/mL
18,CSc1ccc(CN(C)C(=O)c2cc(=O)c3ccccc3o2)cc1,> 50.9 µg/mL
19,Cc1ccc(C2(c3noc(CN(C)Cc4cccnc4)n3)CCCC2)cc1,42.1 µg/mL
20,CCN(CC)c1ccc(NC(=O)c2ccc3c(c2)OCO3)cc1,6.4 µg/mL
21,Cc1ccccc1N1CCN(CC(=O)NCc2ccc(Cl)cc2)CC1,19.6 µg/mL
22,Cc1cccc(/N=C/c2ccccn2)n1,27.5 µg/mL
23,COCCn1c(C)cc(C(=O)CN2c3cccc4cccc(c34)S2(=O)=O)c1C,3.5 µg/mL
24,O=C1c2cccc3cccc(c23)C(=O)N1Cc1ccccc1,< 0.6 µg/mL

row,SMILES,solubility kinetic
1,COc1ccccc1NS(=O)(=O)c1ccc2ccccc2c1,12.1 µg/mL
2,CC(C)C(NC(=O)c1ccc(F)cc1)C(=O)N1CCN(c2ccccn2)CC1 (centres undefined),25.8 µg/mL
3,CNC(=S)N1CCN(c2nc3ccccc3s2)CC1,4 µg/mL
4,CC1CCC(NC(=O)CC(NC(N)=O)c2ccccc2Cl)CC1 (centres undefined),46.6 µg/mL
5,C=CCNC(=S)N1CCN(c2ncc(C(F)(F)F)cc2Cl)CC1,35.7 µg/mL
6,O=c1c2ccccc2nc2n1CCO2,> 28.2 µg/mL
7,Cn1c(C2CCCCC2)nc2cc(N)ccc21,> 34.4 µg/mL
8,CCO.N#CC1=C(N)Oc2c(oc(CO)cc2=O)C1c1ccccc1[N+](=O)[O-] (centres undefined),45.9 µg/mL
9,CCCNc1ncnc2onc(C)c12,22.5 µg/mL
10,Cc1ccc(S(=O)(=O)N(CC(=O)N2CCOCC2)c2ccc(C(C)C)cc2)cc1,4.6 µg/mL
11,COc1ccc(CCNc2nc(C)cc(C)n2)cc1OC.Cl,> 48.6 µg/mL
12,CCN(CC(=O)NCc1cccs1)C(=O)Cc1ccc(C)c(C)c1,> 51.7 µg/mL
13,COC(=O)c1cc(OC)c(OC)cc1NC(=O)c1csc(C)c1,< 0.7 µg/mL
14,O=C(Nc1cccc(F)c1)Nc1ccc2c(c1)CCC2,< 0.3 µg/mL
15,COc1cc2cc(C(=O)N(C)Cc3ccccc3)[nH]c2cc1OC,0.7 µg/mL
16,O=C(Nc1ccc(S(=O)(=O)Nc2nccs2)cc1)C(F)(F)F,> 52.7 µg/mL
17,CC1CCC2(CC1)NC(=O)N(CC(=O)NCc1ccc3c(c1)OCO3)C2=O (centres undefined),6.1 µg/mL
18,COC(=O)CN1C(=O)N/C(=C/c2ccccc2OC)C1=O,> 43.5 µg/mL
19,COC(=O)c1cccc(NC(=O)CSc2nnc(C)n2C)c1,> 48.1 µg/mL
20,Cc1cccc(OCCc2c(C)[nH]c(=S)[nH]c2=O)c1,3.2 µg/mL
21,Cc1cccc(NCc2ccc([N+](=O)[O-])s2)c1,15.1 µg/mL
22,Cc1ccc(S(=O)(=O)NCCCC(=O)N2CCC(C)CC2)cc1,> 50.8 µg/mL
23,NC(=O)C1(C(N)=O)OC1c1ccc(Cl)cc1Cl (centres undefined),> 41.3 µg/mL
24,O=C(/C=C/Nc1ccc(F)cc1F)c1ccc(Br)cc1,< 0.7 µg/mL

row,SMILES,solubility kinetic
1,COc1cccc(NC(=O)CN2CCc3ccccc3C2)c1,42.7 µg/mL
2,CC(C)(C)OC(=O)NC1CC2CCCC(C1)N2Cc1ccccc1 (centres undefined),> 49.6 µg/mL
3,CSC1=NCCN1C(=O)Cc1cccc2ccccc12,20.4 µg/mL
4,O=C(CNC(=O)N1CC(=O)Nc2ccccc21)Nc1ccccc1,> 48.7 µg/mL
5,CCOc1ccccc1C(=O)OCC(=O)Nc1cccc(S(=O)(=O)N2CCCC2)c1,19.2 µg/mL
6,COC(=O)c1c(C)[nH]c(C(=O)CN2C(=O)C3CC=CCC3C2=O)c1C (centres undefined),> 51.7 µg/mL
7,O=C(Nc1nccs1)C(Cl)(Cl)Cl,> 36.8 µg/mL
8,COc1ccc(NC(=O)C(CC(=O)O)C(C)c2ccccc2)cc1 (centres undefined),> 49.1 µg/mL
9,O=C(O)CNS(=O)(=O)c1cccc(Cl)c1,> 37.5 µg/mL
10,CS(=O)(=O)N1CCCC(C(=O)Nc2ccccc2C(F)(F)F)C1 (centres undefined),> 52.6 µg/mL
11,Cc1noc(C)c1C(=O)NC(Cc1c[nH]c2ccccc12)C(=O)O (centres undefined),> 49.1 µg/mL
12,COc1cc2ccccc2cc1C(=O)N1CCN(C(C)=O)CC1,46.6 µg/mL
13,NC(=O)c1ccc(NC(=O)COC(=O)c2cc3ccccc3cc2O)cc1,10.1 µg/mL
14,Cc1cccc(C(=O)Nc2cccc3c2CCCC3)c1,0.8 µg/mL
15,O=C(COC(=O)c1ccc(Cl)nc1)Nc1ccc(Cl)cc1,6.4 µg/mL
16,O=C(Nc1ccc(Cl)cc1)N1CCSC1=NCc1ccccc1,26 µg/mL
17,CC(NC(=O)COC(=O)C1CCCCC1)c1ccccc1 (centres undefined),> 43.4 µg/mL
18,Cc1ccc2nc(C)c3c(c2c1)N(c1ccc(F)cc1)CC3,40.6 µg/mL
19,Cc1ccc2ccc(S(=O)(=O)NCc3ccco3)cc2c1,37 µg/mL
20,COCCCN(CC(=O)O)S(=O)(=O)c1ccccc1,> 43.1 µg/mL
21,O=C(NCc1cccnc1)Nc1ccccc1Cl,> 39.3 µg/mL
22,Cc1cc(C(=O)O)c(C)n1Cc1ccncc1,32.2 µg/mL
23,CC(=O)Nc1cccc(NC(=O)CCCC2CCCCC2)c1,3 µg/mL
